According to patent publication US20260216239A1 (Arizona Board of Regents on Behalf of the University of …, priority 2020, published 2026):
Entries after “also recorded” stand apart in the source; their conditions may differ.

Tested on: Bothrops moojeni venom
Assay: Thrombelastography in human plasma of venom procoagulant activity after isolated exposure of venom to compounds
Type: biochemical
Details: venom 2 μg/ml in plasma; for procoagulant activity of venom: venom exposed ≥5 min in PBS to 1 mM CORM-2, 100 μM RuCl3 or both, vs venom alone
Description: Thrombelastographic analyses. The volumes of subsequently described plasmatic and other additives summed to a final volume of 360 μl. Samples were composed of 320 μl of plasma; 16.4 μl of PBS, 20 μl of 200 mM CaCl2), and 3.6 μl of PBS or venom mixture, which were pipetted into a disposable cup in a Thrombelastograph® hemostasis system (Model 5000, Haemonetics Inc., Braintree, MA, USA) at 37° C., and then rapidly mixed by moving the cup up against and then away from the plastic pin five times. The following viscoelastic parameters described previously (see, Nielsen V G (2019) J Thromb Thrombolysis 47, 73-79; Gessner G, et al., (2017) Eur J Pharmacol 815, 33-41; Nielsen V G, Wagner M T, Frank N (2020) Int J Mol Sci 21, 2082; Lazić D, Arsenijević A, Puchta R, Bugarčić ŽD, Rilak A (2016) Dalton Trans 45, 4633; Hanif M, et al., (2017) ChemPlusChem 82, 841-847) were measured: time to maximum rate of thrombus generation (TMRTG): this is the time interval (minutes) observed prior to maximum speed of clot growth; maximum rate of thrombus generation (MRTG): this is the maximum velocity of clot growth observed (dynes/cm^2/second); and total thrombus generation (TTG, dynes/cm^2), the final viscoelastic resistance observed after clot formation.
(§1) B. moojeni. This venom was exposed to 0 or 1 mM CORM-2 in the presence of 0 or 100 μM RuCl3 in PBS for at least 5 minutes at room temperature prior to placement into plasma followed immediately with commencement of thrombelastographic analysis. The final concentration of this venom in plasma was 2 μg/ml.
Given the aforementioned, the experimental conditions utilized were: 1) V condition—venom in PBS; 2) Ru(II) condition—venom exposed to CORM-2; 3) Ru(III) condition—venom exposed to RuCl3; 4) Ru(II+III) condition—venom exposed to CORM-2 and RuCl3 simultaneously. After the 5 minute period at room temperature, 3.6 μl of one of these solutions was added to the plasma sample in the plastic thrombelastograph cup.
The volumes of subsequently described plasmatic and other additives summed to a final volume of 360 μl. Samples were composed of 320 μl of plasma; 16.4 μl of PBS, 20 μl of 200 mM CaCl2), and 3.6 μl of PBS or venom mixture, which were pipetted into a disposable cup in a Thrombelastograph® hemostasis system (Model 5000, Haemonetics Inc., Braintree, MA, USA) at 37° C., and then rapidly mixed by moving the cup up against and then away from the plastic pin five times. The following viscoelastic parameters described previously (see, Nielsen, V. G. J Thromb Thrombolysis 2019, 47, 73-79; Gessner, G.; et al., Eur J Pharmacol 2017, 815, 33-41; Nielsen, V. G.; Wagner, M. T.; Frank, N. Int J Mol Sci 2020, 21, 2082; Lazid, D.; et al., Dalton Trans 2016, 45, 4633; Hanif, M.; et al., ChemPlusChem 2017, 82, 841-847) were measured: time to maximum rate of thrombus generation (TMRTG): this is the time interval (minutes) observed prior to maximum speed of clot growth; maximum rate of thrombus generation (MRTG): this is the maximum velocity of clot growth observed (dynes/cm2/second); and total thrombus generation (TTG, dynes/cm2), the final viscoelastic resistance observed after clot formation.
as §1, with “CORM-2 or CORM-3” for “CORM-2”, “analysis. This venom was also exposed to 0 or 1 mM CORM-2 in the presence of 0 or 100 μM carboplatin in another series of experiments.” for “analysis.”
Given the aforementioned, the experimental conditions utilized were: 1) V condition—venom in PBS; 2) Ru(II) condition—venom exposed to CORM-2 or CORM-3; 3) Ru(III) condition—venom exposed to RuCl3; 4) Ru(II+III) condition—venom exposed to CORM-2 or CORM-3 and RuCl3 simultaneously; 5) Pt(II) condition—venom exposed to carboplatin; and 6) Pt+Ru condition—venom exposed to carboplatin and CORM-2.

[1] = 100 μM carboplatin, 1 mM CORM-2 or both
[2] = 1 mM CORM-2, 100 μM RuCl3 or both
[3] = 1 mM CORM-3, 100 μM RuCl3 or both
[4] = venom exposed ≥5 min in PBS to 1 mM CORM-3, 100 μM RuCl3 or both

Molecule | maximum rate of thrombus generation (MRTG) [1] | time to maximum rate of thrombus generation (TMRTG) [1] | maximum rate of thrombus generation (MRTG) [2] | time to maximum rate of thrombus generation (TMRTG) [2] | procoagulant activity of venom | maximum rate of thrombus generation (MRTG) [3] | total thrombus generation (TTG) [3] | time to maximum rate of thrombus generation (TMRTG) [4]
[C-]#[O+].[C-]#[O+].[C-]#[O+].[C-]#[O+].[C-]#[O+].[C-]#[O+].[Cl][Ru][Cl].[Cl][Ru][Cl] [CORM-2, tricarbonyldichlororuthenium(II) dimer] | decreased | significantly increased | decrease | prolonged; also recorded: significant increase | significant loss of activity; also recorded: inhibition of procoagulant activity |  |  | 
[Cl][Ru]([Cl])[Cl] [RuCl3, ruthenium(III) chloride] |  |  |  |  | no significant effect; also recorded: did not significantly diminish | did not significantly change | significantly increased | significant increase
Tricarbonylchloro(glycinato)ruthenium [CORM-3] |  |  |  |  |  | did not significantly change | significantly increased | significant increase
